Results on one compound are retold here after ChEMBL document CHEMBL2010748, “Structure-Activity Relationship Studies of HIV-1 Integrase Oligonucleotide Inhibitors” (ACS Med Chem Lett, 2011).

This test addresses Human immunodeficiency virus type 1 integrase (Human immunodeficiency virus 1, UniProt Q7ZJM1). Nature of the test: Inhibition of Human immunodeficiency virus 1 integrase 3'-processing activity expressed in Escherichia coli using 21-mer DNA and Mg2+ after 2 hrs by polyacrylamide gel electrophoresis.

Human immunodeficiency virus type 1 integrase, sequence (Q7ZJM1 whole entry): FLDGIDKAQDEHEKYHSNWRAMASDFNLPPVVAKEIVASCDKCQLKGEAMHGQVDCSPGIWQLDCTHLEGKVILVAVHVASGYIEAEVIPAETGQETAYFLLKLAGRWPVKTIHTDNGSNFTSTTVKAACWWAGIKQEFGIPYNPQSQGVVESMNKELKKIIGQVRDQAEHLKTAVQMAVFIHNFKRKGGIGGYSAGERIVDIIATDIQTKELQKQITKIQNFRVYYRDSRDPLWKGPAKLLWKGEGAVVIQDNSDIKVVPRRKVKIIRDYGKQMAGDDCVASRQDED

The IC50 is the concentration needed to halve the response being measured. Higher therefore signals weaker potency. `CO[C@@H]1[C@H](O)[C@@H](COP(=O)(S)O[C@H]2[C@@H](OC)[C@H](n3cnc4c(=O)[nH]c(N)nc43)O[C@@H]2COP(=O)(S)O[C@H]2[C@@H](OC)[C@H](n3ccc(=O)[nH]c3=O)O[C@@H]2COP(=O)(S)O[C@H]2[C@@H](OC)[C@H](n3cnc4c(=O)[nH]c(N)nc43)O[C@@H]2COP(=O)(S)O[C@H]2[C@@H](OC)[C@H](n3ccc(=O)[nH]c3=O)O[C@@H]2COP(=O)(S)O[C@H]2[C@@H](OC)[C@H](n3ccc(=O)[nH]c3=O)O[C@@H]2COP(=O)(S)O[C@H]2[C@@H](OC)[C@H](n3ccc(=O)[nH]c3=O)O[C@@H]2COP(=O)(S)O[C@H]2[C@@H](OC)[C@H](n3ccc(=O)[nH]c3=O)O[C@@H]2COP(=O)(S)O[C@H]2[C@@H](OC)[C@H](n3ccc(=O)[nH]c3=O)O[C@@H]2COP(=O)(S)O[C@H]2[C@@H](OC)[C@H](n3cnc4c(=O)[nH]c(N)nc43)O[C@@H]2COP(=O)(S)O[C@H]2[C@@H](OC)[C@H](n3cnc4c(=O)[nH]c(N)nc43)O[C@@H]2COP(=O)(S)OCCCCCCNC(=O)c2cc(Cl)c(C(=O)O)c(-c3c4cc(Cl)c(=O)c(Cl)c-4oc4c(Cl)c(O)c(Cl)cc34)c2Cl)O[C@H]1n1ccc(=O)[nH]c1=O` (stereo partly specified) registered an IC50 of 19 nM.
